According to patent US20250002471A1 (Gilead Sciences, Inc., priority 2020, published 2025):

How the values were obtained:
TLR9 = biological target: T1, TLR9 (Homo sapiens, UniProt Q9NR96); experiment: Human PBMC cell-based assay, TLR9 agonist ODN-2216 stimulation, cytokine (IL-6 and IFNα) readout; conditions: human PBMCs, ODN-2216 3 μM, 6 hours; Table 26; read-out: TLR-9 EC50
T1 construct: lymphocytes, monocytes and dendritic cells that express TLR7, TLR8 and TLR9; endogenous in cells; host or cells: human PBMCs from healthy donors
T1 sequence (Q9NR96 26-1032): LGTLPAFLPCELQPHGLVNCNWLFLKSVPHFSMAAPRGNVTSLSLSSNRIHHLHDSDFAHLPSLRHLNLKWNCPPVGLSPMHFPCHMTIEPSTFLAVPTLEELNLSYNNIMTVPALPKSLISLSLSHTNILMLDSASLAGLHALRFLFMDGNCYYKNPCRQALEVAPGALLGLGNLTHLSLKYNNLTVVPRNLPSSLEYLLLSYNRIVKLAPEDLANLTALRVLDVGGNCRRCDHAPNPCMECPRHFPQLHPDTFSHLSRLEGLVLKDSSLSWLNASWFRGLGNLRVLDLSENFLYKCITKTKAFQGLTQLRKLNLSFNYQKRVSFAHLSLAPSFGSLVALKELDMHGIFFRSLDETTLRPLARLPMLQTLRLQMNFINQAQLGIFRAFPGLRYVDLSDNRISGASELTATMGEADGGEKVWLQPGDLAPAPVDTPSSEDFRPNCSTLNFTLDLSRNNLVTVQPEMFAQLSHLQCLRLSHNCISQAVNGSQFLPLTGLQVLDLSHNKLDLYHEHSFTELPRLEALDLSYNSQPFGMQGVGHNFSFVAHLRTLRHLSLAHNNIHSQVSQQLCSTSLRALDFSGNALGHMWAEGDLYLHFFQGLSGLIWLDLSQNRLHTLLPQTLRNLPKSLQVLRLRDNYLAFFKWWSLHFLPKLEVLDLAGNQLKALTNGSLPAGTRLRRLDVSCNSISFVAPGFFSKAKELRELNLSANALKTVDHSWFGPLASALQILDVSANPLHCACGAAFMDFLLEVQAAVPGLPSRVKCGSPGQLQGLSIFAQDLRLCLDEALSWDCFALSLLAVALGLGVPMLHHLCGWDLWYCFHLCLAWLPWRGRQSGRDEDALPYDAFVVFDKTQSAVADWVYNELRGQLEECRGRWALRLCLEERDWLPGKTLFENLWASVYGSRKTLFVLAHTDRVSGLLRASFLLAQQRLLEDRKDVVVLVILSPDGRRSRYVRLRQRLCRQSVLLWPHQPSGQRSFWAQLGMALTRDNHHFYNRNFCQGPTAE
Excerpt: (§1) Human peripheral blood mononuclear cells (PBMCs) consist of lymphocytes, monocytes and dendritic cells that express TLR7, TLR8 and TLR9. These cells respond to TLR7, TLR8 and TLR9 ligand stimulation and produce cytokines and chemokines in vitro and in vivo. Human PBMCs are therefore suitable to be used in a cell-based assay to assess the in vitro potency of a TLR 7, 8, and/or 9 antagonist. The result is expected to be more translatable to the pharmacodynamics response in vivo than cell line-based assays.
(§2) Cryopreserved human PBMCs from healthy donors were thawed and resuspended in RPMI-1640 media with L-glutamine (Corning) supplemented with 10% Fetal Bovine Serum (Hyclone) and 1X Penicillin-Streptomycin (Corning). After counting, the cell density was adjusted to 2 million cells/ml and incubated for 1 hour at 37° C., 5% CO2 for recovery. Following the recovery, the cells were plated by adding 50p per well (100,000 cells) to 384-well cell culture plates (Greiner) containing 250nl of test antagonists in 100% DMSO per well, in a 10 points dose response in quadruplicates. PBMCs were incubated in the presence of test antagonists for one hour at 37° C., 5% CO2 before being stimulated with a TLR7 or TLR9 agonist. GS-986 (Gilead Sciences) was used as the TLR7 agonist at a final concentration of 400 nM. ODN-2216 (InvivoGen) was used as the TLR9 agonist at a final concentration of 3μM. PBMCs were incubated in the presence of the test antagonist and the TLR7 (or TLR9) agonist for an additional 6 hours at 37° C., 5% CO2. At the end of the incubation, the cell culture plates were centrifuged at 500 g for 5 min, and the cell culture supernatant was collected. The level of cytokines (IL-6 and IFNα) in the supernatant was measured by electrochemiluminescence immunoassays (Mesoscale Discovery) following manufacturer's recommended protocols. The level of cytokine measured was plotted against the test antagonist concentration and fitted to a sigmoidal function to determine the EC50, which are shown below in Table 26.

TLR7 = biological target: T2, TLR7 (Homo sapiens, UniProt Q9NYK1); experiment: Human PBMC cell-based assay, TLR7 agonist GS-986 stimulation, cytokine (IL-6 and IFNα) readout; conditions: human PBMCs, GS-986 400 nM, 6 hours; Table 26; read-out: TLR-7 EC50
T2 construct: lymphocytes, monocytes and dendritic cells that express TLR7, TLR8 and TLR9; endogenous in cells; host or cells: human PBMCs from healthy donors
T2 sequence (Q9NYK1 27-1049): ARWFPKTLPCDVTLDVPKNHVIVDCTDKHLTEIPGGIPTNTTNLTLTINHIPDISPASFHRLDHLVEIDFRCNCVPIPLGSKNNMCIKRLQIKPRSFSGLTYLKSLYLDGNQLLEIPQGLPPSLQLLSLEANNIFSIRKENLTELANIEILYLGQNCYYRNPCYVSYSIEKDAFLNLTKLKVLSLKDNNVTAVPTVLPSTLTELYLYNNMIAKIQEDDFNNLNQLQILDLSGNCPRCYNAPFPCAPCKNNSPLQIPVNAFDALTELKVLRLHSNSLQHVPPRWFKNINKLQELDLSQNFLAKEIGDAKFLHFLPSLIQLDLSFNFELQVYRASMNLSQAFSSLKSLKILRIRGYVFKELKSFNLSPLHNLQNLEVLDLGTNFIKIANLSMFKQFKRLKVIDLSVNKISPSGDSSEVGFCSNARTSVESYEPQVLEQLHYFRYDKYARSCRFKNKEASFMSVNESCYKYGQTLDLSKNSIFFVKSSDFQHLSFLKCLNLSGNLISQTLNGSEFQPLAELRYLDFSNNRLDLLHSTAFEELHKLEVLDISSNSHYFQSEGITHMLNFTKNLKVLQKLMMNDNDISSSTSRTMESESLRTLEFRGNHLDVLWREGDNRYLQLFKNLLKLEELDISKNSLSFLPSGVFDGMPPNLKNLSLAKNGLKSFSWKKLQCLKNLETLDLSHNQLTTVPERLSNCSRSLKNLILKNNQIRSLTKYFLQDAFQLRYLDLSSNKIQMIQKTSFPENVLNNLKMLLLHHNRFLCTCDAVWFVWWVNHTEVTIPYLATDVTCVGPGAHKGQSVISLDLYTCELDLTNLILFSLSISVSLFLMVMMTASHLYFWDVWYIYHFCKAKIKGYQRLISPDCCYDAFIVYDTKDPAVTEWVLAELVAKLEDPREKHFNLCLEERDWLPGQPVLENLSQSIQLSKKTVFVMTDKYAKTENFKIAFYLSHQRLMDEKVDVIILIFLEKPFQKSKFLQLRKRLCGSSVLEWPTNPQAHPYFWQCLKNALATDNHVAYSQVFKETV
Excerpt: as §1, §2

Compound	EC50 (TLR9)	EC50 (TLR7)
Cc1cc(-c2[nH]c3cc(-c4ccc(N5CCNCC5)nc4)ccc3c2C)cc(C#N)n1 [Example 77]	768 nM	10.5 nM
Cc1c(-c2cc(C)c3ncnn3c2)[nH]c2cc(-c3nc4ccccc4[nH]3)ccc12 [Example 193, 6-[6-(1H-benzimidazol-2-yl)-3-methyl-1H-indol-2-yl]-8-methyl-[1,2,4]triazolo[1,5-a]pyridine]	–	483 nM
Cc1cncc(-c2[nH]c3cc(-c4ccc(N5CCNCC5)nc4)ccc3c2C)c1 [Example 84]	964 nM	1990 nM
Cc1cc(-c2[nH]c3cc(-c4ccc(N5CC[C@H]6CNC[C@H]65)nc4)ccc3c2C)cc(C)n1 [Example 33]	79.9 nM	51 nM
Cc1cc(-c2[nH]c3cc(-c4ccc(C(=O)N5CC6CNCC6C5)cc4)ccc3c2C)cc(C)n1 (centres unmarked) [Example 126]	294 nM	48 nM
Cc1ncc(-c2[nH]c3cc(-c4ccc(N5CCNCC5)nc4)ccc3c2C)cn1 [Example 82]	489 nM	503 nM
Cc1cc(-c2[nH]c3cc(-c4cnn(C5CC6CCC(C5)N6)c4)ccc3c2C)cc(C)n1 (centres unmarked) [Example 184]	268 nM	16.9 nM
Cc1cc(-c2[nH]c3cc(-c4ccc(N5CCN(C)CC5)nc4)ccc3c2C)cc(C)n1 [Example 41, 2-(2,6-dimethylpyridin-4-yl)-3-methyl-6-(6-(4-methylpiperazin-1-yl)pyridin-3-yl)-1H-indole]	69.6 nM	12.9 nM
Cc1cc(-c2[nH]c3cc(-c4cccc5c4CNC5)ccc3c2C)cc(C)n1 [Example 19]	109 nM	163 nM
Cc1cc(-c2[nH]c3cc(-c4ccc(C(=O)N5CC[C@@H](N)C5)cc4)ccc3c2C)cc(C)n1 [Example 124]	111 nM	55.5 nM
Cc1cc(-c2[nH]c3cc(-c4ccc(N5CCN(C(=O)[C@H]6CCCN6C)CC5)nc4)ccc3c2C)cc(C)n1 [Example 109]	35.5 nM	15.3 nM
Cc1cc(-c2[nH]c3cc(C(=O)N[C@H]4CCCNC4)ccc3c2C)cc(C)n1 [Example 179]	211 nM	334 nM
Cc1cc(-c2[nH]c3cc(C(=O)N4CCC5(CCNCC5)CC4)ccc3c2C)cc(C)n1 [Example 180]	835 nM	> 1000 nM
Cc1cc(-c2[nH]c3nc(C4CCNCC4)ccc3c2C)cc(C)n1 [Example 152, 2-(2,6-dimethyl-4-pyridyl)-3-methyl-6-(4-piperidyl)-1H-pyrrolo[2,3-b]pyridine]	178 nM	1420 nM
Cc1c(-c2cn(C)c(=O)n(C)c2=O)[nH]c2cc(-c3ccc(N4CCNCC4)nc3)ccc12 [Example 91]	540 nM	104 nM
Cc1cc(-c2[nH]c3cc(-c4cccc(C(=O)N5CCNCC5)c4)ccc3c2C)cc(C)n1 [Example 12]	47.3 nM	103 nM
Cc1cc(-c2[nH]c3cc(-c4ccc(N5CCN6CC(F)(F)C[C@H]6C5)nc4)ccc3c2C)cc(C)n1 [Example 144]	727 nM	> 1000 nM
Cc1cc(-c2[nH]c3cc(-c4ccc(N5CCNCC5)nc4)ccc3c2C)cnn1 [Example 76]	421 nM	63 nM
Cc1cc(-c2[nH]c3cc(-c4ccc(C(=O)N5CCNCC5)cc4)ccc3c2C)cc(C)n1 [Example 8]	84.4 nM	84.3 nM
Cc1cc(-c2[nH]c3cc(C4CCNCC4)ccc3c2C(C)C)cc(C)n1 [Example 50, 2-(2,6-dimethylpyridin-4-yl)-3-isopropyl-6-(piperidin-4-yl)-1H-indole]	784 nM	222 nM
Cc1cc(-c2[nH]c3cc(-c4ccc5c(c4)CCCN5)ccc3c2C)cc(C)n1 [Example 43]	1340 nM	–
Cc1cc(-c2[nH]c3cc(-c4ccc(N5CCNCC5)nc4)cnc3c2C)cc(C)n1 [Example 149, 2-(2,6-dimethyl-4-pyridyl)-3-methyl-6-(6-piperazin-1-yl-3-pyridyl)-1H-pyrrolo[3,2-b]pyridine]	188 nM	1260 nM
Cc1cc(-c2[nH]c3cc(-c4ccc(N5CCCNCC5)nc4)ccc3c2C)cc(C)n1 [Example 103, 6-(6-(1,4-diazepan-1-yl)pyridin-3-yl)-2-(2,6-dimethylpyridin-4-yl)-3-methyl-1H-indole]	45.7 nM	35.1 nM
Cc1c(-c2cc(C)c3ncnn3c2)[nH]c2cc(-c3ccc4nc([C@H]5N[C@@H]6CC[C@H]5C6)[nH]c4c3)ccc12 [Example 171]	–	0.11 nM
CCc1c(-c2cc(C)c3ncnn3c2)[nH]c2cc(-c3ccc(N4CCN(CC(N)=O)CC4)nc3)ccc12 [Example 177, 2-(4-(5-(3-ethyl-2-(8-methyl-[1,2,4]triazolo[1,5-a]pyridin-6-yl)-1H-indol-6-yl)pyridin-2-yl)piperazin-1-yl)acetamide]	–	1.66 nM
Cc1c(-c2cc(C)c3ncnn3c2)[nH]c2cc(-c3ccc4c(c3)ncn4C3CC4CC3CN4)ccc12 (centres unmarked) [Example 176]	–	1.01 nM
Cc1c(-c2cc(C)c3ncnn3c2)[nH]c2cc(-c3nc4ccccc4n3C)ccc12 [Example 194]	–	631 nM
Cc1c(-c2cc(C)c3ncnn3c2)[nH]c2cc(-c3cnc4c(c3)CNCC4)ccc12 [Example 170]	–	1.37 nM
Cc1cc(-c2[nH]c3cc(-c4ccc5nc([C@@H]6N[C@H]7CC[C@@H]6C7)[nH]c5c4)ccc3c2C)cc(C)n1 [Example 195, 2-[(1S,3R,4R)-2-azabicyclo[2.2.1]heptan-3-yl]-6-[2-(2,6-dimethyl-4-pyridyl)-3-methyl-1H-indol-6-yl]-1H-benzimidazole]	–	4.48 nM
